# Reference: patent publication US20260274829A1, “NEW E3 UBIQUITIN LIGASE LIGAND, PROTEIN DEGRADATION AGENT AND USE THEREOF” (GLUETACS THERAPEUTICS (SHANGHAI) CO., LTD., priority 2023, published 2026)
# Target: T1, human Cereblon WT GST-tagged protein (Homo sapiens, UniProt Q96SW2)
# T1 construct: purchased CISBIO 64BDCRBNPEH
# Assay: CRBN binding, HTRF CEREBLON BINDING kit
# Conditions: CRBN binding, HTRF CEREBLON BINDING kit
# Experimental: The CEREBLON BINDING kits (specification: 10,000 tests; product number: Catalog #64BDCRBNPEH; CISBIO company) was used to determine the CRBN binding ability of the compounds to be tested through a HTRF method (homogeneous time-resolved fluorescence). The specific methods are as follows: • 1. […] Then, 2.5 μL of human Cereblon WT GST-tagged protein solution was added to each well. Finally, 5 μL of the thoroughly mixed Thalidomide-Re reagent and GST Eu antibody working solution were added to each of the aforementioned wells. […] The blank control wells were sequentially added with 2.5 μL of diluent #9 (1×) solution, 2.5 μL of binding buffer, and 5 μL of thoroughly mixed Thalidomide-Re reagent and GST Eu antibody working solution. • 4. After sealing and incubating the solutions in the aforementioned wells at room temperature for 3 hours, the absorbance values at emission wavelengths of 620 nm and 665 nm were detected by the HTRF method using a Spark microplate reader (V3.1 SP1).
# The corresponding CRBN binding inhibition rate was calculated using the following method:
# [formula] [formula] [formula] • Note: OD 665 nmcompound is the absorbance value of each well of the compounds to be tested of the present disclosure at an emission wavelength of 665 nm. • OD 620 nmcompound is the absorbance value of each well of the compounds to be tested of the present disclosure at an emission wavelength of 620 nm. • OD 665 nmcontrol is the absorbance value of the blank control well at an emission wavelength of 665 nm. • OD 620 nmcontrol is the absorbance value of the blank control well at an emission wavelength of 620 nm. • OD 665 nmStd0 is the absorbance value of the solvent control well at an emission wavelength of 665 nm. • OD 620 nmStd0 is the absorbance value of the solvent control well at an emission wavelength of 620 nm.
# T1 sequence (Q96SW2 whole entry): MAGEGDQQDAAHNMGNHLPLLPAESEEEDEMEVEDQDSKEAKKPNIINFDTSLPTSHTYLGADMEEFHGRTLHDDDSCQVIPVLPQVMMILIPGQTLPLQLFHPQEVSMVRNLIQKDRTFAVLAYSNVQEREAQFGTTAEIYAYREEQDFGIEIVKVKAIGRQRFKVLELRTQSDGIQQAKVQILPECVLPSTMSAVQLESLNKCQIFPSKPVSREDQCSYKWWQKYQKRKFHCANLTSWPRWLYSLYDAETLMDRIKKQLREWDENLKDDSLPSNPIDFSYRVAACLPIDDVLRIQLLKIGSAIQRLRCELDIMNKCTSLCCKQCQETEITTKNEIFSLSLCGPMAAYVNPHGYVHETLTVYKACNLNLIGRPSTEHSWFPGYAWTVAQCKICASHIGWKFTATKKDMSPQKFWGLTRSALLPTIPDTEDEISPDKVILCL
row,SMILES,IC50 [nM]
1,CNC(=O)c1ccc(N2C(=S)N(c3ccc(C#N)c(C(F)(F)F)c3)C(=O)C2(C)C)cc1F [Enzalutamide],> 10000
2,"COc1cc(N2CCC(N3CCN(Cc4cccc(N5CCC(=O)NC5=O)c4)CC3)CC2)c(C)cc1Nc1ncc(Br)c(Nc2ccc3nccnc3c2P(C)(C)=O)n1 [GT-04260, 1-(3-((4-(1-(4-((5-bromo-4-((5-(dimethylphosphoryl)quinoxalin-6-yl)amino)pyrimidin-2-yl)amino)-5-methoxy-2-methylphenyl)piperidin-4-yl)piperazin-1-yl)methyl)phenyl)dihydropyrimidine-2,4(1H,3H)-dione]",1000 to 1900
3,"COc1cc2nn(C3CCN(Cc4ccc(C5CCC(=O)NC5=O)cc4)CC3)cc2cc1NC(=O)c1cccc(C(F)(F)F)c1 (stereo not drawn) [GT-04747, N-(2-(1-(4-(2,6-dioxopiperidin-3-yl)benzyl)piperidin-4-yl)-6-methoxy-2H-indazol-5-yl)-3-(trifluoromethyl)benzamide]",500 to 1000
4,"COc1cc2nn(C3CCN(Cc4ccc(C5CCC(=O)NC5=O)c(F)c4)CC3)cc2cc1NC(=O)c1cccc(C(F)(F)F)c1 (stereo not drawn) [GT-04748, N-(2-(1-(4-(2,6-dioxopiperidin-3-yl)-3-fluorobenzyl)piperidin-4-yl)-6-methoxy-2H-indazol-5-yl)-3-(trifluoromethyl)benzamide]",1000 to 1900
5,"COc1cc2nn(C3CCN(Cc4cccc(NC5CCC(=O)NC5=O)c4)CC3)cc2cc1NC(=O)c1cccc(C(F)(F)F)c1 (stereo not drawn) [GT-04749, N-(2-(1-(3-((2,6-dioxopiperidin-3-yl)amino)benzyl)piperidin-4-yl)-6-methoxy-2H-indazol-5-yl)-3-(trifluoromethyl)benzamide]",1000 to 1900
6,"COc1cc2nn(C3CCN(Cc4cccc(N5CCC(=O)NC5=O)c4)CC3)cc2cc1NC(=O)c1cccc(C(F)(F)F)c1 [GT-04750, N-(2-(1-(3-(2,4-dioxotetrahydropyrimidin-1(2H)-yl)benzyl)piperidin-4-yl)-6-methoxy-2H-indazol-5-yl)-3-(trifluoromethyl)benzamide]",1000 to 1900
7,"COc1cc2nn(C3CCN(Cc4ccc(N5CCC(=O)NC5=O)c(F)c4)CC3)cc2cc1NC(=O)c1cccc(C(F)(F)F)c1 [GT-04751, N-(2-(1-(4-(2,4-dioxotetrahydropyrimidin-1(2H)-yl)-3-fluorobenzyl)piperidin-4-yl)-6-methoxy-2H-indazol-5-yl)-3-(trifluoromethyl)benzamide]",1000 to 1900
8,"COc1cc2nn(C3CCN(Cc4ccc(N5CCC(=O)NC5=O)cc4)CC3)cc2cc1NC(=O)c1cccc(C(F)(F)F)c1 [GT-04752, N-(2-(1-(4-(2,4-dioxotetrahydropyrimidin-1(2H)-yl)benzyl)piperidin-4-yl)-6-methoxy-2H-indazol-5-yl)-3-(trifluoromethyl)benzamide]",1000 to 1900
9,"COc1cc2nn(C3CCN(Cc4ccc(N5CCC(=O)NC5=O)cc4F)CC3)cc2cc1NC(=O)c1cccc(C(F)(F)F)c1 [GT-04753, N-(2-(1-(4-(2,4-dioxotetrahydropyrimidin-1(2H)-yl)-2-fluorobenzyl)piperidin-4-yl)-6-methoxy-2H-indazol-5-yl)-3-(trifluoromethyl)benzamide]",1000 to 1900
10,"COc1cc2nn(C3CCN(Cc4ccc(C5CCC(=O)NC5=O)cc4)CC3)cc2cc1NC(=O)c1cccc(C(F)(F)F)n1 (stereo not drawn) [GT-04761, N-(2-(1-(4-(2,6-dioxopiperidin-3-yl)benzyl)piperidin-4-yl)-6-methoxy-2H-indazol-5-yl)-6-(trifluoromethyl)picolinamide]",500 to 1000
11,"COc1cc2nn(C3CCN(Cc4ccc(C5CCC(=O)NC5=O)c(F)c4)CC3)cc2cc1NC(=O)c1cccc(C(F)(F)F)n1 (stereo not drawn) [GT-04762, N-(2-(1-(4-(2,6-dioxopiperidin-3-yl)-3-fluorobenzyl)piperidin-4-yl)-6-methoxy-2H-indazol-5-yl)-6-(trifluoromethyl)picolinamide]",1000 to 1900
12,"COc1cc2nn(C3CCN(Cc4cccc(NC5CCC(=O)NC5=O)c4)CC3)cc2cc1NC(=O)c1cccc(C(F)(F)F)n1 (stereo not drawn) [GT-04763, N-(2-(1-(3-((2,6-dioxopiperidin-3-yl)amino)benzyl)piperidin-4-yl)-6-methoxy-2H-indazol-5-yl)-6-(trifluoromethyl)picolinamide]",500 to 1000
13,"COc1cc2nn(C3CCN(Cc4cccc(N5CCC(=O)NC5=O)c4)CC3)cc2cc1NC(=O)c1cccc(C(F)(F)F)n1 [GT-04774, N-(2-(1-(3-(2,4-dioxotetrahydropyrimidin-1(2H)-yl)benzyl)piperidin-4-yl)-6-methoxy-2H-indazol-5-yl)-6-(trifluoromethyl)picolinamide]",1000 to 1900
14,"COc1cc2nn(C3CCN(Cc4ccc(N5CCC(=O)NC5=O)c(F)c4)CC3)cc2cc1NC(=O)c1cccc(C(F)(F)F)n1 [GT-04775, N-(2-(1-(4-(2,4-dioxotetrahydropyrimidin-1(2H)-yl)-3-fluorobenzyl)piperidin-4-yl)-6-methoxy-2H-indazol-5-yl)-6-(trifluoromethyl)picolinamide]",1000 to 1900
15,"COc1cc2nn(C3CCN(Cc4ccc(N5CCC(=O)NC5=O)cc4F)CC3)cc2cc1NC(=O)c1cccc(C(F)(F)F)n1 [GT-04777, N-(2-(1-(4-(2,4-dioxotetrahydropyrimidin-1(2H)-yl)-2-fluorobenzyl)piperidin-4-yl)-6-methoxy-2H-indazol-5-yl)-6-(trifluoromethyl)picolinamide]",1000 to 1900
16,"NC(=O)c1ncc(N2CCCCC2)nc1Nc1ccc(C2CCN(Cc3ccc(C4CCC(=O)NC4=O)cc3)CC2)cc1 (stereo not drawn) [GT-04785, 3-((4-(1-(4-(2,6-dioxopiperidin-3-yl)benzyl)piperidin-4-yl)phenyl)amino)-5-(piperidin-1-yl)pyrazine-2-carboxamide]",500 to 1000
17,"NC(=O)c1ncc(N2CCCCC2)nc1Nc1ccc(C2CCN(Cc3ccc(C4CCC(=O)NC4=O)c(F)c3)CC2)cc1 (stereo not drawn) [GT-04786, 3-((4-(1-(4-(2,6-dioxopiperidin-3-yl)-3-fluorobenzyl)piperidin-4-yl)phenyl)amino)-5-(piperidin-1-yl)pyrazine-2-carboxamide]",< 500
18,"NC(=O)c1ncc(N2CCCCC2)nc1Nc1ccc(C2CCN(Cc3cccc(N4CCC(=O)NC4=O)c3)CC2)cc1 [GT-04787, 3-((4-(1-(3-(2,4-dioxotetrahydropyrimidin-1(2H)-yl)benzyl)piperidin-4-yl)phenyl)amino)-5-(piperidin-1-yl)pyrazine-2-carboxamide]",500 to 1000
19,"NC(=O)c1ncc(N2CCCCC2)nc1Nc1ccc(C2CCN(Cc3cccc(NC4CCC(=O)NC4=O)c3)CC2)cc1 (stereo not drawn) [GT-04791, 3-((4-(1-(3-((2,6-dioxopiperidin-3-yl)amino)benzyl)piperidin-4-yl)phenyl)amino)-5-(piperidin-1-yl)pyrazine-2-carboxamide]",500 to 1000
20,"CN1CCN([C@@H]2CCCN(c3cnc(C(N)=O)c(Nc4ccc(C5CCN(Cc6ccc(C7CCC(=O)NC7=O)cc6)CC5)cc4)n3)C2)C1=O (stereo partly drawn) [GT-04798, 3-((4-(1-(4-(2,6-dioxopiperidin-3-yl)benzyl)piperidin-4-yl)phenyl)amino)-5-((R)-3-(3-methyl-2-oxoimidazolidin-1-yl)piperidin-1-yl)pyrazine-2-carboxamide]",< 500
21,"CN1CCN([C@@H]2CCCN(c3cnc(C(N)=O)c(Nc4ccc(C5CCN(Cc6ccc(C7CCC(=O)NC7=O)c(F)c6)CC5)cc4)n3)C2)C1=O (stereo partly drawn) [GT-04799, 3-((4-(1-(4-(2,6-dioxopiperidin-3-yl)-3-fluorobenzyl)piperidin-4-yl)phenyl)amino)-5-((R)-3-(3-methyl-2-oxoimidazolidin-1-yl)piperidin-1-yl)pyrazine-2-carboxamide]",< 500
